Laboratory results taken from patent US20200109126A1 (priority 2017, published 2020).
Like-named read-outs stand apart in the source and are kept apart here.

Tests used:
[1] = molecular target: T1, μOR (Homo sapiens, UniProt P35372); assay: cell-based; assay type: cell-based
[2] = molecular target: T1, μOR; assay: β-arrestin recruitment at μOR with GRK2 co-expression; assay type: cell-based
[3] = molecular target: T1, μOR; assay: β-arrestin recruitment at μOR without GRK2; assay type: cell-based
[4] = molecular target: humanDOR (Homo sapiens, UniProt P41143); assay: Receptor binding with [3H]diprenorphine at human DOR
[5] = molecular target: hMOR (Homo sapiens, UniProt P35372); assay: Receptor binding with [3H]diprenorphine at hMOR
[6] = molecular target: hKOR (Homo sapiens, UniProt P41145); assay: Receptor binding with [3H]diprenorphine at hKOR
[7] = molecular target: T1, μOR; assay: biochemical; assay type: binding; set-up: expressed in transfected cells; host or cells: HEK293 membranes (Ki); Sf9 insect cell membranes (single-point screen); PDSP for analogs
Description: For a primary screen of selected molecules, binding to OR was assessed by measuring competition against the radioligand ^3H-diprenorphine (^3H-DPN). […] The reaction contained 40 fmol of μOR and was incubated in a buffer of 20 mM HEPES pH 7.5, 100 mM sodium chloride, and 0.1% bovine serum albumin for 1 hour at 25° C. To separate free from bound radioligand, reactions were rapidly filtered over Whatman GF/B filters with the aid of a Brandel harvester and ^3H-DPN counts were measured by liquid scintillation.

[8] = read-out: Arrestin pEC50 (converted)
[9] = ± SD (two experiments) or SEM, (n) experiments, read-out: humanDOR [3H]dyprenorphine Ki
[10] = ± SD (two experiments) or SEM, (n) experiments, read-out: hMOR [3H]dyprenorphine Ki
[11] = ± SD (two experiments) or SEM, (n) experiments, read-out: hKOR [3H]dyprenorphine Ki
[12] = molecules identified in the initial screen, read-out: μOR Ki
[13] = PZM analogs, (n) = number of independent experiments, read-out: binding affinity Ki hDOR
[14] = PZM analogs, (n) = number of independent experiments, read-out: binding affinity Ki hMOR
[15] = PZM analogs, (n) = number of independent experiments, read-out: binding affinity Ki hKOR

hKOR, sequence (P41145 whole entry): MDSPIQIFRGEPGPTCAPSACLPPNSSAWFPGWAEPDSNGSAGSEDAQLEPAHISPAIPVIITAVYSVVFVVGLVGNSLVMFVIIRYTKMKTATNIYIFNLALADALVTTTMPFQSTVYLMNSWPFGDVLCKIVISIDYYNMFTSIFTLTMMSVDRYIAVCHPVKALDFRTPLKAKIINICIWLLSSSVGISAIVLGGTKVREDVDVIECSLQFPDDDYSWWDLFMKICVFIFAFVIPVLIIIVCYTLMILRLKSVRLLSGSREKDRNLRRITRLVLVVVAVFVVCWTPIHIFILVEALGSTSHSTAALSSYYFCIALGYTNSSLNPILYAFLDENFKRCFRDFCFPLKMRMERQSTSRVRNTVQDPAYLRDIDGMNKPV
T1 sequence (P35372 whole entry): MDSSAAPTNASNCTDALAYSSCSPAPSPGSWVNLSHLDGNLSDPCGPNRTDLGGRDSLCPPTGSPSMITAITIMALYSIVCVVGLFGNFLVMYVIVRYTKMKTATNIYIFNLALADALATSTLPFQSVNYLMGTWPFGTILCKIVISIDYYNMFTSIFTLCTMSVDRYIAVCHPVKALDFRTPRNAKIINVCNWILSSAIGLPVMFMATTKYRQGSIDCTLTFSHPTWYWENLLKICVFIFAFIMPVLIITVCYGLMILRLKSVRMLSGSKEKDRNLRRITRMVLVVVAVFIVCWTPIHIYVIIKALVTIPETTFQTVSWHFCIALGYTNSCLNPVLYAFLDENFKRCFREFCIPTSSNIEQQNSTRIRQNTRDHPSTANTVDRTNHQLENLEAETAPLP
hMOR, sequence (P35372 whole entry): as above
humanDOR, sequence (P41143 whole entry): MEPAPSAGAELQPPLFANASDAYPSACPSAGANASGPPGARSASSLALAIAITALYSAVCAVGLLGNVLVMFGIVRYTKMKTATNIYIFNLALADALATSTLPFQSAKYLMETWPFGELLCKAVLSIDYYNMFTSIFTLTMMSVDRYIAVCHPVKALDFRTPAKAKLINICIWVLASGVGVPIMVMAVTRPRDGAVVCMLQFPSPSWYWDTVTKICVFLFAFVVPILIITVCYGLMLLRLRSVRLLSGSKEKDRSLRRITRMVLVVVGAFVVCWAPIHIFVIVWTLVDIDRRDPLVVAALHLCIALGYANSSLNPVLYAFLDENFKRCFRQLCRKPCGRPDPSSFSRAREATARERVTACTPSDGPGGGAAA

| Structure (SMILES) | Arrestin + GRK2 Emax % DAMGO [2] | Arrestin Emax % DAMGO [3] | EC50 ([2]; read-out: Arrestin + GRK2 EC50) [nM] | EC50 ([3]; read-out: Arrestin EC50) [nM] | Gi/o Emax % DAMGO [1] | EC50 ([1]; Gi/o EC50 nM) [nM] | also measured |
| --- | --- | --- | --- | --- | --- | --- | --- |
| C[C@H](Cc1ccsc1)NC(=O)NC[C@H](Cc1ccc(O)cc1)N(C)C [(S,R)-21, 1-[(S)-2-(Dimethylamino)-3-(4-hydroxyphenyl)propyl]-3-((R)-1-(thiophen-3-yl)propan-2-yl)urea] |  |  |  |  |  |  | Gi/o activation, μOR agonist activity (in words) [1]: more potent partial agonist of the μOR as compared to (S,S)-21 |
| C[C@@H](Cc1ccsc1)NC(=O)NC[C@H](Cc1ccccc1)N(C)C [(S,S)-12, 1-[(S)-2-(Dimethylamino)-3-phenylpropyl]-3-[(S)-1-(thiophen-3-yl)propan-2-yl]urea] |  |  |  |  |  |  | Gi/o activation, μOR agonist activity (in words) [1]: most potent and efficacious Gi/o signaling agonist among the four isomers |
| C[C@@H](NC(=O)[C@@H](N)Cc1ccc(O)cc1)C(=O)NCC(=O)N(C)[C@@H](Cc1ccccc1)C(=O)NCCO [DAMGO, reference compound] | 100 % DAMGO | 100 % DAMGO |  |  |  |  |  |
| C[C@@H](Cc1csc2ccccc12)NC(=O)NC[C@H](Cc1ccc(O)cc1)N(C)C [DD63L-B] | 92 % DAMGO | 38 % DAMGO | 82.1 | 397 | 88 % DAMGO | 5.7 |  |
| CN(C)[C@H](CNC(=S)NCCc1ccsc1)Cc1ccc(O)cc1 [DD81, (S)-1-(2-(dimethylamino)-3-(4-hydroxyphenyl)propyl)-3-(2-(thiophen-3-yl)ethyl)thiourea] | 27 % DAMGO | 3 % DAMGO | 67.1 | 24.9 | 22 % DAMGO | 15.1 |  |
| CC[C@@H](Cc1ccsc1)NC(=O)NC[C@H](Cc1ccc(O)cc1)N(C)C [DD88B, 1-((S)-2-(dimethylamino)-3-(4-hydroxyphenyl)propyl)-3-((S)-1-(thiophen-3-yl)butan-2-yl)urea] | 45 % DAMGO | 5 % DAMGO |  |  |  |  |  |
| CN(C)[C@H](CNC(=O)NCCc1ccccc1)Cc1ccc(O)cc1 [DD90] | 31 % DAMGO | 5 % DAMGO | 144 | 53.5 | 76 % DAMGO | 4.25 |  |
| CN(CCc1ccccc1)C(=O)NC[C@H](Cc1ccc(O)cc1)N(C)C [DD102] | 61 % DAMGO | 30 % DAMGO | 1500 | 1980 | 76 % DAMGO | 37.9 | EC50 [3, 8]: 1980 nM |
| CN(C[C@H](Cc1ccc(O)cc1)N(C)C)C(=O)NCCc1ccccc1 [DD108] | 118 % DAMGO | 120 % DAMGO | 1490 | 4710 | 86 % DAMGO | 35.1 | EC50 ([2]; read-out: Arrestin + GRK2 pEC50 (converted)): 1490 nM |
| CN(CCc1ccccc1)C(=O)N(C)C[C@H](Cc1ccc(O)cc1)N(C)C [DD109] | No Activity | No Activity |  |  | No Activity |  | Arrestin + GRK2 EC50 nM [2]: No Activity; Arrestin EC50 nM [3]: No Activity; Gi/o EC50 nM [1]: No Activity |
| C[C@@H](Cc1ccsc1)NC(=O)NC[C@H](Cc1ccc(O)c(CO)c1)N(C)C [DD131, 1-((S)-2-(dimethylamino)-3-(4-hydroxy-3-(hydroxymethyl)phenyl)propyl)-3-((S)-1-(thiophen-3-yl)propan-2-yl)urea] | 45 % DAMGO | 11 % DAMGO | 213 | 230 | 57 % DAMGO | 7.94 |  |
| CN(CC1CC1)[C@H](CNC(=O)NCCc1ccccc1)Cc1ccc(O)cc1 [DD184] | No Activity | No Activity |  |  | 40 % DAMGO | 559 | Arrestin + GRK2 EC50 nM [2]: No Activity; Arrestin EC50 nM [3]: No Activity |
| CN(C)[C@H](CNC(=O)NCCc1ccsc1)Cc1ccc(O)cc1 [DD 16, (S)-1-(2-(dimethylamino)-3-(4-hydroxyphenyl)propyl)-3-(2-(thiophen-3-yl)ethyl)urea] | 33 % DAMGO | 5 % DAMGO | 144 |  | 60 % DAMGO | 7.55 | Ki [4, 9]: 330 nM; EC50 [3, 8]: 410 nM; Ki [5, 10]: 43 nM; Ki [6, 11]: 150 nM |
| CN(C)[C@H](CNC(=O)NC(C)(C)Cc1ccsc1)Cc1ccc(O)cc1 [DD 32L, (S)-1-(2-(dimethylamino)-3-(4-hydroxyphenyl)propyl)-3-(2-methyl-1-(thiophen-3-yl)propan-2-yl)urea] | 24 % DAMGO | 3 % DAMGO | 49.4 | 5.23 | 52 % DAMGO | 23.5 | Ki [4, 9]: 650 nM; Ki [5, 10]: 38 nM; Ki [6, 11]: 46 nM |
| CN(C)[C@H](CNC(=O)NC(C)(C)Cc1ccccc1)Cc1ccc(O)cc1 [DD 33L, (S)-1-(2-(dimethylamino)-3-(4-hydroxyphenyl)propyl)-3-(2-methyl-1-phenylpropan-2-yl)urea] | 14 % DAMGO | No Activity | 134 |  | 61 % DAMGO | 98.1 | Ki [4, 9]: 920 nM; Arrestin EC50 nM [3]: No Activity; EC50 ([1]; Gi/o pEC50): 98.2 nM; Ki [5, 10]: 46 nM; Ki [6, 11]: 91 nM |
| C[C@@H](Cc1ccsc1)NC(=O)NC[C@H](Cc1cccc(O)c1)N(C)C [DD 47LS, 1-((S)-2-(dimethylamino)-3-(3-hydroxyphenyl)propyl)-3-((S)-1-(thiophen-3-yl)propan-2-yl)urea] | 70 % DAMGO | 12 % DAMGO | 211 | 357 | 73 % DAMGO | 17 | Ki [4, 9]: 350 nM; Ki [5, 10]: 34 nM; Ki [6, 11]: 46 nM |
| C[C@H](NC(=O)NC[C@H](Cc1ccc(O)cc1)N(C)C)c1ccccc1 [DD 53LS, 1-((S)-2-(dimethylamino)-3-(4-hydroxyphenyl)propyl)-3-((S)-1-phenylethyl)urea] | 33 % DAMGO | 5 % DAMGO | 87.4 | 67.9 | 63 % DAMGO | 3.08 | Ki [4, 9]: 180 nM; Ki [5, 10]: 28 nM; Ki [6, 11]: 22 nM |
| CN(C)[C@H](CNC(=O)NC1Cc2ccccc2C1)Cc1ccc(O)cc1 [DD 57L, (S)-1-(2,3-dihydro-1H-inden-2-yl)-3-(2-(dimethylamino)-3-(4-hydroxyphenyl)propyl)urea] | No Activity | No Activity |  |  | No Activity |  | Arrestin + GRK2 EC50 nM [2]: No Activity; Ki [4, 9]: 74 nM; Arrestin EC50 nM [3]: No Activity; Gi/o EC50 nM [1]: No Activity; Ki [5, 10]: 8.3 nM; Ki [6, 11]: 40 nM |
| C[C@@H](Cc1ccccc1)NC(=O)NC[C@H](Cc1ccc(O)cc1)N(C)C [DD 61L-B, 1-((S)-2-(dimethylamino)-3-(4-hydroxyphenyl)propyl)-3-((S)-1-phenylpropan-2-yl)urea] | 79 % DAMGO | 12 % DAMGO | 278 | 84.1 | 84 % DAMGO | 35.5 | Ki [4, 9]: 360 nM; Ki [5, 10]: 42 nM; Ki [6, 11]: 37 nM |
| CN(C)[C@H](CNC(=O)Cc1cn2ccccc2n1)Cc1ccccc1 [compound 2] |  |  |  |  |  |  | Ki [7, 12]: 5800 nM |
| Cc1cccc(NC2CCN(C(=O)Nc3ccc(F)cc3F)CC2)n1 [compound 3] |  |  |  |  |  |  | Ki [7, 12]: 13800 nM |
| CN(C)[C@H](CNC(=O)Cc1ccc([N+](=O)[O-])s1)Cc1ccccc1 [compound 4] |  |  |  |  |  |  | Ki [7]: 2300 nM |
| Cc1ccc2[nH]c(=O)c(CN3CCN[C@@H](c4ccccc4)C3)cc2c1 [compound 5] |  |  |  |  |  |  | Ki [7, 12]: 4700 nM |
| CN(C)[C@H](CNC(=O)NC(C)(C)Cc1ccsc1)Cc1ccc(O)cc1 [drawing 528] |  |  |  |  |  |  | Ki [4, 13]: 650 nM; Ki [5, 14]: 38 nM; Ki [6, 15]: 46 nM |
| CN(C)[C@H](CNC(=O)NC(C)(C)Cc1ccccc1)Cc1ccc(O)cc1 [drawing 530] |  |  |  |  |  |  | Ki [4, 13]: 920 nM; Ki [5, 14]: 46 nM; Ki [6, 15]: 91 nM |
| C[C@@H](Cc1ccsc1)NC(=O)NC[C@H](Cc1cccc(O)c1)N(C)C [drawing 531] |  |  |  |  |  |  | Ki [4, 13]: 350 nM; Ki [5, 14]: 34 nM; Ki [6, 15]: 46 nM |
| CN(C)[C@H](CNC(=O)NC(C)(C)Cc1ccsc1)Cc1cccc(O)c1 [drawing 532] |  |  |  |  |  |  | Ki [4, 13]: 190 nM; Ki [5, 14]: 25 nM; Ki [6, 15]: 32 nM |
| C[C@@H](Cc1ccsc1)NC(=O)NC[C@H](Cc1ccc(O)c(CO)c1)N(C)C [drawing 535] |  |  |  |  |  |  | Ki [4, 13]: 1500 nM; Ki [5, 14]: 66 nM; Ki [6, 15]: 86 nM |
| Cc1cc(O)cc(C)c1C[C@@H](CNC(=O)N[C@H](C)Cc1ccsc1)N(C)C [drawing 537] |  |  |  |  |  |  | Ki [4, 13]: 17 nM; Ki [5, 14]: 4.1 nM; Ki [6, 15]: 12 nM |
| Cc1cc(O)cc(C)c1C[C@@H](CNC(=O)N[C@@H](C)Cc1ccsc1)N(C)C [drawing 538] |  |  |  |  |  |  | Ki [4, 13]: 85 nM; Ki [5, 14]: 12 nM; Ki [6, 15]: 6.5 nM |
